Assay results taken from publication PMC7215373, “Design, Synthesis, and Anticancer Evaluation of Novel Indole Derivatives of Ursolic Acid as Potential Topoisomerase II Inhibitors” (International Journal of Molecular Sciences, 2020).
Where two headings read alike, the source gives them in different places.

Tests used:
DNA topoisomerase I = biological target: T1, DNA topoisomerase I (Bos taurus, UniProt F1MN93); experiment: Topoisomerase I relaxation assay (supercoiled pBR322); assay type: biochemical; settings: for inhibition at 20 µM: 20 μM compound, read-out: Topo I Inhibition (%) 20 μM; for inhibition at 100 µM: 100 μM compound, read-out: Topo I Inhibition (%) 100 μM
T1 construct: purchased TaKaRa, Kyoto, Japan
T1 sequence (F1MN93 1-767): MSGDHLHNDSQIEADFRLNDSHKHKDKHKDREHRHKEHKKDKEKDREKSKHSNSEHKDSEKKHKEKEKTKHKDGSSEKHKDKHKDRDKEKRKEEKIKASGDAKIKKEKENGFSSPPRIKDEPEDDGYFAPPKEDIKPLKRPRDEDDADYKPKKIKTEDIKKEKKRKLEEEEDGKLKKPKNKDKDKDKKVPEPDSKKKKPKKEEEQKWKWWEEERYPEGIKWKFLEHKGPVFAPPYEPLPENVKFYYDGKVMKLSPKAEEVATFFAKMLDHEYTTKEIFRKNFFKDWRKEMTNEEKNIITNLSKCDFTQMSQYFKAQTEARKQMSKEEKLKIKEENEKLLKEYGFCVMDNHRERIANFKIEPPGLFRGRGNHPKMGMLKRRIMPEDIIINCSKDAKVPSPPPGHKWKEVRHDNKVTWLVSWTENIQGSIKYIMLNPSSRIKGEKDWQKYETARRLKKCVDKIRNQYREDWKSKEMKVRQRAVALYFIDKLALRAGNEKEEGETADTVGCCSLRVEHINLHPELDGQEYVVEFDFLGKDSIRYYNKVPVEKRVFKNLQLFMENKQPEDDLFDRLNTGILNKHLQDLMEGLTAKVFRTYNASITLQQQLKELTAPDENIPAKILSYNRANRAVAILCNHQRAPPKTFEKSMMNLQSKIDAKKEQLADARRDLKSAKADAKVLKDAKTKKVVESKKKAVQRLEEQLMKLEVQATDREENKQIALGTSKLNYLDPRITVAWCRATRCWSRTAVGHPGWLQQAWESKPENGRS
Description: The effect of the tested compounds on Topo I and II activities were evaluated by Topo I/II relaxation assays. The reaction products, relaxed DNA could be distinguished from supercoiled DNA by gel electrophoresis and visualized using gel imaging system. The activity of DNA topoisomerase I (TaKaRa, Kyoto, Japan) was determined by measuring the relaxation of supercoiled DNA pBR322 [32]. Camptothecin was used as a positive control. The reaction mixture was prepared according to the manufacture's protocol, and incubated at 37 °C for 30 min. The reactions were terminated by adding dye solution containing 1% SDS, 0.02% bromophenol blue and 50% glycerol. The mixtures were applied to 1% agarose gel and subjected to electrophoresis for 1 h, in 1× TAE buffer (40 mM Tris-acetate, 1 mM EDTA). Gels were stained for 30 min in 60 mL 1× TAE buffer with ethidium bromide (0.5 μg/mL). DNA bands were visualized by transillumination with UV light and then photographed by a Gel Doc XR+ System (BIO-RAD, Hercules, CA, USA).

SMMC-7721 cells [1] = experiment: MTT cytotoxicity assay, SMMC-7721; assay type: cell-based, human; settings: 48 h exposure
Description: (§1) The in vitro cytotoxic activities of synthesized compounds were evaluated against two human hepatocarcinoma cell lines (SMMC-7721 and HepG2) and the human normal hepatocyte cell line (LO2) via MTT assay. All tested compounds were dissolved in DMSO and the stock solutions were diluted by DMEM medium before treatment of the cultured cells. […] Cell lines were obtained from American Tissue Culture Collection (ATCC). Briefly, different tumor cells were grown in DMEM medium supplemented with 10% fetal bovine serum, penicillin (100 U/mL), and streptomycin (50 μg/mL). Cells were harvested at log phase of growth and seeded in 96-well plates (100 μL/well at a density of 2 × 10^5 cells/mL). After 24 h incubation at 37 °C and 5% CO2 to allow cell attachment, cultures were exposed to various concentrations of the isolated compounds for 48 h. Finally, MTT solution (2.5 mg/mL in PBS) was added (40 μL/well). Plates were further incubated for 4 h at 37 °C, and the formazan crystals formed were dissolved by adding 150 μL/well of DMSO. Absorption at 570 nm was measured with an ELISA plate reader. […] Doxorubicin, camptothecin, and etoposide (VP-16) were co-assayed as positive controls.

Human Topoisomerase IIα = biological target: T2, Human Topoisomerase IIα (Homo sapiens, UniProt P11388); experiment: Topoisomerase II relaxation assay (supercoiled pBR322); assay type: biochemical; settings: for inhibition at 20 µM: 20 μM compound, read-out: Topo II Inhibition (%) 20 μM; for inhibition at 100 µM: 100 μM compound, read-out: Topo II Inhibition (%) 100 μM
T2 construct: purchased USB, Affymetrix, Waltham, MA, USA
T2 sequence (P11388 whole entry): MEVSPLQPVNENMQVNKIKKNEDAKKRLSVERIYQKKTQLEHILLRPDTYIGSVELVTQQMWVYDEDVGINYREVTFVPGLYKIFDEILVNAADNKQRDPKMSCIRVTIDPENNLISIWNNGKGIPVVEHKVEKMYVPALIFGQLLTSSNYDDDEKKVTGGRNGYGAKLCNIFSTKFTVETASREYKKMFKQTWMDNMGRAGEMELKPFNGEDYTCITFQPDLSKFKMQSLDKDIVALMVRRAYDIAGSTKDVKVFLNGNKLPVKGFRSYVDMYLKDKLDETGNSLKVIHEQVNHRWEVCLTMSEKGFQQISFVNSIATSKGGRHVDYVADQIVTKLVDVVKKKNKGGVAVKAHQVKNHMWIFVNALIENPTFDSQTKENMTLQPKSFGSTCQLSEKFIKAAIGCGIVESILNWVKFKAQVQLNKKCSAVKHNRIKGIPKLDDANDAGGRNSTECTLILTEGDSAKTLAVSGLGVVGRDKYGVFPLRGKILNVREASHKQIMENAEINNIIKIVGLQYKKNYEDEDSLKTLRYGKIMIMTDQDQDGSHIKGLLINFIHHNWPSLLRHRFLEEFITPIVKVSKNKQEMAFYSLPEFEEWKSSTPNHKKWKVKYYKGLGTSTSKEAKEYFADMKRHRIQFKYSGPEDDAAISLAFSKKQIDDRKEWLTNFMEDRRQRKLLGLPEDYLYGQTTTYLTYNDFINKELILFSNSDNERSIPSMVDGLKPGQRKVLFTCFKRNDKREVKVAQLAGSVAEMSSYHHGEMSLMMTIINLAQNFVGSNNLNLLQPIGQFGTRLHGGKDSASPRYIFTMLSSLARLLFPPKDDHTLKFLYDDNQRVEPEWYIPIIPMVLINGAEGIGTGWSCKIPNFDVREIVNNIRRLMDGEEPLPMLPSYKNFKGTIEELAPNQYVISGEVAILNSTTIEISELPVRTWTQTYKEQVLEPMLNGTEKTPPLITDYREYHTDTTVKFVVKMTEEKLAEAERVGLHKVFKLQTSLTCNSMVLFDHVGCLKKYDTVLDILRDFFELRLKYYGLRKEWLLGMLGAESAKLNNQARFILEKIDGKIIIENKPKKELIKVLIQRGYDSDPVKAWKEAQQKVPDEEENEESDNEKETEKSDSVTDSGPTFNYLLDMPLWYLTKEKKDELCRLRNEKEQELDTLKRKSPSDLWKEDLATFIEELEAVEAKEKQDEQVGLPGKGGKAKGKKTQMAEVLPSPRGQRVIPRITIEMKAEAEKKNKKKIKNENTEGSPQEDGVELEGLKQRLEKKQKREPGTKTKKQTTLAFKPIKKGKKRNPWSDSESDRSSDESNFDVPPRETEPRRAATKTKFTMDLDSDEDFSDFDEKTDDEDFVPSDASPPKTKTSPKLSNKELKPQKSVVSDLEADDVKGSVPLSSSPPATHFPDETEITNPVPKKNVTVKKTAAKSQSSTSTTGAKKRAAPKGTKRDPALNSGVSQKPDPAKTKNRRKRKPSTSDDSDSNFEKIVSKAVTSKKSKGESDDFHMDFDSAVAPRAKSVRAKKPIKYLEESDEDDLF
Description: The effect of the tested compounds on Topo I and II activities were evaluated by Topo I/II relaxation assays. The reaction products, relaxed DNA could be distinguished from supercoiled DNA by gel electrophoresis and visualized using gel imaging system. Human Topoisomerase IIα activity was detected by measuring the relaxation of supercoiled pBR322 plasmid DNA [22]. […] For inhibition studies, the compounds were pre-incubated with human Topo IIα and DNA for 15 min. Compounds were used at the appropriate concentrations by dissolving in 2% (v/v) DMSO. DMSO didn't show detrimental effect on the enzyme activity at concentration up to 2% (v/v). Reaction mixture was incubated at 37 °C for 30 min and stopped by the addition of 7 mM EDTA. Reaction product was mixed with DNA loading dye and electrophoresed on 1% TAE-Agarose. The gel was stained with ethidium bromide (0.5 μg/mL) for 30 min, destained twice in 1× TAE buffer, and then visualized using a BIO-RAD Gel Doc XR+ System. Etoposide (VP-16) was co-assayed as a positive control.

HepG2 cells [2] = experiment: MTT cytotoxicity assay, HepG2; assay type: cell-based, human; settings: 48 h exposure
Description: as §1

SMMC-7721 cells [3] = test system: SMMC-7721 cells; parameters: method as in PMID 25537271; settings: earlier in vitro cytotoxic assay; read-out: IC50 against SMMC-7721; cited from earlier work
HepG2 cells [4] = test system: HepG2 cells; parameters: method as in PMID 25537271; settings: earlier in vitro cytotoxic assay; read-out: IC50 against HepG2; cited from earlier work
LO2 cells = experiment: MTT cytotoxicity assay, normal hepatocyte LO2; assay type: cell-based; settings: Homo sapiens, L02, 48 h exposure, normal hepatocyte cell line
Description: as §1

inhibition at 20 µM (DNA topoisomerase I) [%]	inhibition at 100 µM (DNA topoisomerase I) [%]	inhibitory activity to Topo I (DNA topoisomerase I; preliminary screening)	inhibition at 20 µM (Human Topoisomerase IIα) [%]	inhibition at 100 µM (Human Topoisomerase IIα) [%]	inhibitory activity to Topo IIα (Human Topoisomerase IIα; preliminary screening)	melting point [°C]	Compound	IC50 (SMMC-7721 cells [1]; Homo sapiens, SMMC-7721, 48 h) [µM]	IC50 (HepG2 cells [2]; Homo sapiens, HepG2, 48 h) [µM]	IC50 (SMMC-7721 cells [3]) [µM]	IC50 (HepG2 cells [4]) [µM]	IC50 (LO2 cells) [µM]	IC50 (SMMC-7721 cells [1]) [µM]	IC50 (HepG2 cells [2]) [µM]
9	34.2	considerable inhibitory activity	38.2	72.5	considerable inhibitory activity	–	Cc1ccc2[nH]c3c(c2c1)C[C@@]1(C)C(CC[C@]2(C)C1CC=C1C4[C@@H](C)[C@H](C)CC[C@]4(C(=O)NCCCN(C)C)CC[C@]12C)C3(C)C (stereo partly shown) [5b, N-(3-(Dimethylamino)propyl)-5′-methyl-1′H-ursa-2,12-dieno[3,2-b]indol-28-carboxamide]	1.08 ± 0.22	1.26 ± 0.17	~1	~1	20.7 ± 1.73	–	–
0	13	–	32.7	71.7	–	195 to 197	Cc1ccc2[nH]c3c(c2c1)C[C@@]1(C)C(CC[C@]2(C)C1CC=C1C4[C@@H](C)[C@H](C)CC[C@]4(C(=O)NCCN4CCCCC4)CC[C@]12C)C3(C)C (stereo partly shown) [4d, N-(2-(Piperidin-1-yl)ethyl)-5′-methyl-1′H-ursa-2,12-dieno[3,2-b]indol-28-carboxamide]	~1	~1	–	–	16 ± 1.07	1.75 ± 0.11	1.47 ± 0.12
–	0	–	32.8	72.5	–	121 to 123	Cc1ccc2[nH]c3c(c2c1)C[C@@]1(C)C(CC[C@]2(C)C1CC=C1C4[C@@H](C)[C@H](C)CC[C@]4(C(=O)NCCCCN4CCCCC4)CC[C@]12C)C3(C)C (stereo partly shown) [6d, N-(4-(Piperidin-1-yl)butyl)-5′-methyl-1′H-ursa-2,12-dieno[3,2-b]indol-28-carboxamide]	2.72 ± 0.31	2.31 ± 0.21	–	–	18.7 ± 1.36	–	–
